Measurements from patent US20200255436A1, “CORTICOTROPIN RELEASING FACTOR RECEPTOR ANTAGONISTS” (Spruce Biosciences, Inc., priority 2019, published 2020).
In brackets after ≈: the same amount, converted by molar mass. Like-named read-outs stand apart in the source and are kept apart here.

Columns and labels:
[1] = Solubility in different aqueous media; type: physicochemical; conditions: for solubility at 24 h: thermodynamic from solid
[2] = Study 2 Part A: multiple-dose (14 days) pharmacokinetics; type: in vivo, human; conditions: for AUC(0-t): read-out: AUC0-24h; for Tmax: median
Experimental: The 2-part multiple-dose study, Study 2, determined the safety and tolerability of repeated daily doses of Compound 1 and investigated the effects on biomarkers of relevance for the treatment of alcohol dependence.
PK were also evaluated in the multiple-dose, dose-escalation study, Study 2. In Part A of the study, subjects were divided into 3 cohorts and received 50, 150, or 200 mg Compound 1 or placebo for 14 consecutive days (at least 6 subjects received Compound 1 and 2 subjects received placebo in each cohort). […] All dosing occurred in the fed state. An assessment of diurnal cortisol levels, plus when under conditions of glucose clamp, were also carried out both prior to and during the dosing period.
Consistent with the single-dose study (Study 1), concentrations appeared to decline in a bi-exponential manner, characterized by a rapid decrease within the first 24 hours. […] The Tmax appeared to be consistent across doses. Overall half-lives, weight normalized CL/F and V/F were consistent for 150 and 200 mg. However, the values for these latter 2 parameters were almost doubled at the 50-mg dose level. Variability (CV%) for apparent clearance and volume of distribution were large and not reduced with weight-normalization.
Table 8 presents the results of the dose proportionality assessment for the AUC0-24 and Cmax over the tested dose range.

[3] = human, plasma, oral, 50 mg, 50 mg daily, Day 14, geometric mean
[4] = human, plasma, oral, 50 mg, Day 1, geometric mean
[5] = human, plasma, oral, 150 mg, 150 mg daily, Day 14, geometric mean
[6] = human, plasma, oral, 150 mg, Day 1, geometric mean
[7] = human, plasma, oral, 200 mg, 200 mg daily, Day 14, geometric mean
[8] = human, plasma, oral, 200 mg, Day 1, geometric mean

**Q.** With CCC(CC)c1cc(C)nc2c(-c3sc(N4CCOCC4)nc3Cl)c(C)nn12 [Compound 1, 4-(4-chloro-5-(2,5-dimethyl-7-(pentan-3-yl)pyrazolo[1,5-a]pyrimidin-3-yl)thiazol-2-yl)morpholine] as the compound, how does the “Description (solubility)” value ([1]; 0.001N HCl, equilibrium pH 3.36) read?
**A.** Insoluble

**Q.** And the “Description (solubility)” value ([1]; 0.01N HCl, equilibrium pH 2.06)?
**A.** Insoluble

**Q.** And the “Description (solubility)” value ([1]; 0.1N HCl, equilibrium pH 1.06)?
**A.** insoluble

**Q.** And the “Description (solubility)” value ([1]; 0.1N NaOH, equilibrium pH 11.65)?
**A.** Insoluble

**Q.** And the “Description (solubility)” value ([1]; FaSSIF, equilibrium pH 5.16)?
**A.** insoluble

**Q.** What about the “Description (solubility)” value ([1]; FaSSIF, equilibrium pH 6.73) of the same compound?
**A.** Insoluble

**Q.** What about the “Description (solubility)” value ([1]; SGF, equilibrium pH 2.25) of the same compound?
**A.** Insoluble

**Q.** And the “Description (solubility)” value ([1]; Water, equilibrium pH 7.78)?
**A.** insoluble

**Q.** And the solubility at 24 h ([1]; aqueous buffer, 0.001N HCl, equilibrium pH 3.36, 24 hours at room temperature)?
**A.** 0.3 µg/mL (≈ 0.714 µM)

**Q.** And the solubility at 24 h ([1]; aqueous buffer, 0.1N NaOH, equilibrium pH 11.65, 24 hours at room temperature)?
**A.** 0.2 µg/mL (≈ 0.476 µM)

**Q.** And the “Description (solubility)” value ([1]; pH 4.5 Acetate (USP), equilibrium pH 4.65)?
**A.** Insoluble

**Q.** And the solubility at 24 h ([1]; pH 4.5 acetate buffer (USP), aqueous buffer, pH 4.5 Acetate (USP), equilibrium pH 4.65, 24 hours at room temperature)?
**A.** 0.5 µg/mL (≈ 1.19 µM)

**Q.** What about the “Description (solubility)” value ([1]; pH 6.0 Phosphate (USP), equilibrium pH 6.08) of the same compound?
**A.** Insoluble

**Q.** And the solubility at 24 h ([1]; pH 6.0 phosphate buffer (USP), aqueous buffer, pH 6.0 Phosphate (USP), equilibrium pH 6.08, 24 hours at room temperature)?
**A.** 0.2 µg/mL (≈ 0.476 µM)

**Q.** What about the “Description (solubility)” value ([1]; pH 7.5 Phosphate (USP), equilibrium pH 7.57) of the same compound?
**A.** Insoluble

**Q.** And the solubility at 24 h ([1]; pH 7.5 phosphate buffer (USP), aqueous buffer, pH 7.5 Phosphate (USP), equilibrium pH 7.57, 24 hours at room temperature)?
**A.** 0.6 µg/mL (≈ 1.43 µM)

**Q.** What about the solubility at 24 h ([1]; simulated gastric fluid, 0.01N HCl, equilibrium pH 2.06, 24 hours at room temperature) of the same compound?
**A.** 0.4 µg/mL (≈ 0.952 µM)

**Q.** What about the solubility at 24 h ([1]; simulated gastric fluid, 0.1N HCl, equilibrium pH 1.06, 24 hours at room temperature) of the same compound?
**A.** 1.8 µg/mL (≈ 4.29 µM)

**Q.** What about the solubility at 24 h ([1]; simulated gastric fluid, SGF, equilibrium pH 2.25, 24 hours at room temperature) of the same compound?
**A.** 20.4 µg/mL (≈ 48.6 µM)

**Q.** And the solubility at 24 h ([1]; FaSSIF, equilibrium pH 5.16, 24 hours at room temperature)?
**A.** 10.4 µg/mL (≈ 24.8 µM)

**Q.** And the solubility at 24 h ([1]; FaSSIF, equilibrium pH 6.73, 24 hours at room temperature)?
**A.** 3.6 µg/mL (≈ 8.57 µM)

**Q.** What about the solubility at 24 h ([1]; Water, equilibrium pH 7.78, 24 hours at room temperature, n = 2) of the same compound?
**A.** 0.3 µg/mL (≈ 0.714 µM)

**Q.** What about the “RA (accumulation ratio, Day 14 AUC0-24/Day 1 AUC0-24)” value ([2]; 50 mg daily) of the same compound?
**A.** 2.80

**Q.** And the CLaa/F ([2]; 50 mg daily, Day 14, geometric mean)?
**A.** 183 L/h

**Q.** What about the “WT-norm Claa/F” value ([2]; 50 mg daily, Day 14, weight normalized) of the same compound?
**A.** 2.88 L/h/kg

**Q.** What about the “RA (accumulation ratio, Day 14 AUC0-24/Day 1 AUC0-24)” value ([2]; 150 mg daily) of the same compound?
**A.** 2.51

**Q.** What about the CLaa/F ([2]; 150 mg daily, Day 14, geometric mean) of the same compound?
**A.** 101 L/h

**Q.** And the “WT-norm Claa/F” value ([2]; 150 mg daily, Day 14, weight normalized)?
**A.** 1.42 L/h/kg

**Q.** And the “RA (accumulation ratio, Day 14 AUC0-24/Day 1 AUC0-24)” value ([2]; 200 mg daily)?
**A.** 3.65

**Q.** And the CLaa/F ([2]; 200 mg daily, Day 14, geometric mean)?
**A.** 98 L/h

**Q.** What about the “WT-norm Claa/F” value ([2]; 200 mg daily, Day 14, weight normalized) of the same compound?
**A.** 1.50 L/h/kg

**Q.** And the Cmax [2, 3]?
**A.** 50.3 ng/mL

**Q.** And the AUC(0-t) [2, 3]?
**A.** 273 ng·h/mL

**Q.** What about the Vd/F at 14 days ([2]; human, plasma, oral, 50 mg, 50 mg daily, Day 14, geometric mean, read-out: Vss/F) of the same compound?
**A.** 12900 L

**Q.** And the Tmax ([2]; human, plasma, oral, 50 mg, 50 mg daily, Day 14)?
**A.** 5 h

**Q.** And the Vd/F at 14 days ([2]; human, plasma, oral, 50 mg, 50 mg daily, Day 14, weight normalized, read-out: WT-norm Vss/F)?
**A.** 204 L/kg

**Q.** What about the Cmax [2, 4] of the same compound?
**A.** 22.7 ng/mL

**Q.** And the AUC(0-t) [2, 4]?
**A.** 97.6 ng·h/mL

**Q.** What about the Tmax ([2]; human, plasma, oral, 50 mg, Day 1) of the same compound?
**A.** 4.52 h

**Q.** What about the Cmax [2, 5] of the same compound?
**A.** 222 ng/mL

**Q.** What about the AUC(0-t) [2, 5] of the same compound?
**A.** 1480 ng·h/mL

**Q.** What about the Vd/F at 14 days ([2]; human, plasma, oral, 150 mg, 150 mg daily, Day 14, geometric mean, read-out: Vss/F) of the same compound?
**A.** 6170 L

**Q.** What about the Vd/F at 14 days ([2]; human, plasma, oral, 150 mg, 150 mg daily, Day 14, geometric mean, read-out: Vz/F) of the same compound?
**A.** 17600 L

**Q.** What about the Tmax ([2]; human, plasma, oral, 150 mg, 150 mg daily, Day 14) of the same compound?
**A.** 5 h

**Q.** What about the Vd/F at 14 days ([2]; human, plasma, oral, 150 mg, 150 mg daily, Day 14, weight normalized, read-out: WT-norm Vss/F) of the same compound?
**A.** 86.5 L/kg

**Q.** And the Cmax [2, 6]?
**A.** 127 ng/mL

**Q.** And the AUC(0-t) [2, 6]?
**A.** 590 ng·h/mL

**Q.** And the Tmax ([2]; human, plasma, oral, 150 mg, Day 1)?
**A.** 5 h

**Q.** And the Cmax [2, 7]?
**A.** 314 ng/mL

**Q.** And the AUC(0-t) [2, 7]?
**A.** 2040 ng·h/mL

**Q.** What about the Vd/F at 14 days ([2]; human, plasma, oral, 200 mg, 200 mg daily, Day 14, geometric mean, read-out: Vss/F) of the same compound?
**A.** 5080 L

**Q.** What about the Vd/F at 14 days ([2]; human, plasma, oral, 200 mg, 200 mg daily, Day 14, geometric mean, read-out: Vz/F) of the same compound?
**A.** 16300 L

**Q.** What about the Tmax ([2]; human, plasma, oral, 200 mg, 200 mg daily, Day 14) of the same compound?
**A.** 5 h

**Q.** What about the Vd/F at 14 days ([2]; human, plasma, oral, 200 mg, 200 mg daily, Day 14, weight normalized, read-out: WT-norm Vss/F) of the same compound?
**A.** 77.4 L/kg

**Q.** What about the Cmax [2, 8] of the same compound?
**A.** 143 ng/mL

**Q.** What about the AUC(0-t) [2, 8] of the same compound?
**A.** 559 ng·h/mL

**Q.** And the Tmax ([2]; human, plasma, oral, 200 mg, Day 1)?
**A.** 5 h

**Q.** What about the AUC(0-inf) ([2]; human, plasma, oral, 50 mg daily, Day 14, geometric mean) of the same compound?
**A.** 980 ng·h/mL
